The values below come from patent US8765748B2, “Indazolyl, benzimidazolyl, benzotriazolyl substituted indolinone derivatives as kinase inhibitors useful in the treatment of cancer” (University Health Network, priority 2007, dated 2014).

What all share (format): biochemical
In experiment [1] the target is T1, human PLK4 (Homo sapiens, UniProt O00444).
T1 construct: amino terminal GST fusion of residues 1-391 of human PLK4; made in house; host or cells: E. coli
T1 sequence (O00444 1-391): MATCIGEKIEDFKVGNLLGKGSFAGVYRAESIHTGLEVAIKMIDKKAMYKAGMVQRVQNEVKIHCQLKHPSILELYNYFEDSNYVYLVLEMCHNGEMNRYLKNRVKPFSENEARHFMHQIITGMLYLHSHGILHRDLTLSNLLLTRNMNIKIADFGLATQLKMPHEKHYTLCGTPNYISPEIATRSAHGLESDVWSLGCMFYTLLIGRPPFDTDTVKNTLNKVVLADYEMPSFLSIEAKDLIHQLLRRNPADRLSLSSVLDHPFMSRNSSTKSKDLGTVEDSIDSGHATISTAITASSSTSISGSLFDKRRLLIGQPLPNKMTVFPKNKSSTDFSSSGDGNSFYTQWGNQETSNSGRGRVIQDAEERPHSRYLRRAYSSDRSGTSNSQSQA
The experiment in a line: PLK4 Inhibition Assay (indirect ELISA). Conditions: 15 μM ATP, 4 nM GST-PLK4; read-out: PLK4 IC50 Ranges. Summed up:
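IC50 values, from 4-point logistic fitting, reflect remaining activity measured by indirect ELISA. Enzyme was GST-PLK4 treated with lambda phosphatase and given a 15-minute pre-incubation with compound before ATP start.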

For experiment [2], the target named is T2, PLK1 (Homo sapiens, UniProt P53350).
T2 construct: purchased Invitrogen PV3501
T2 sequence (P53350 whole entry): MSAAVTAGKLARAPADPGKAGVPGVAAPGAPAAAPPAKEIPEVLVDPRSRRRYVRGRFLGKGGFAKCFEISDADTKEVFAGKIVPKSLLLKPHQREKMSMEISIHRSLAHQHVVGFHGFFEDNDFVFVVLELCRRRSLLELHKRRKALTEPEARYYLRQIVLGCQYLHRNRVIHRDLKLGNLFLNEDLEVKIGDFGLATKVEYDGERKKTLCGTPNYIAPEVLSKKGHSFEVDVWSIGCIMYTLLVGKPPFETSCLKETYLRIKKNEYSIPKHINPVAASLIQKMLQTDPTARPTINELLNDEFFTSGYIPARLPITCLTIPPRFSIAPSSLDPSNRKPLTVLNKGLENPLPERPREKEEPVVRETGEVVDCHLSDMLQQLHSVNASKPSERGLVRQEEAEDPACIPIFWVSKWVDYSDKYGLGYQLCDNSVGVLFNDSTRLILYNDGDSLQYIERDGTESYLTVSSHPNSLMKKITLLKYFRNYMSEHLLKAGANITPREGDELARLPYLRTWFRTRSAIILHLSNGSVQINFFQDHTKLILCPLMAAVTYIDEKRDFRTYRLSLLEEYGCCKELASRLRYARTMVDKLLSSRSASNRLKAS
Description: PLK1 Inhibition Assay (Z-Lyte). Conditions: for inhibition at 10 µM: 10 μM compound, read-out: PLK1 relative inhibition percentage at a dose of 10 μM. The procedure: PLK1 inhibition was determined using the Z-Lyte assay kit from Invitrogen (cat #PV3802). […] The % inhibition values were determined according to the manufacturer's directions and IC50 values were obtained using a non-linear 4 point logistic curve fit (XLfit4, IDBS)

In experiment [3] the target is T3, PLK2 (Homo sapiens, UniProt Q9NYY3).
T3 construct: purchased Invitrogen PV4204
T3 sequence (Q9NYY3 whole entry): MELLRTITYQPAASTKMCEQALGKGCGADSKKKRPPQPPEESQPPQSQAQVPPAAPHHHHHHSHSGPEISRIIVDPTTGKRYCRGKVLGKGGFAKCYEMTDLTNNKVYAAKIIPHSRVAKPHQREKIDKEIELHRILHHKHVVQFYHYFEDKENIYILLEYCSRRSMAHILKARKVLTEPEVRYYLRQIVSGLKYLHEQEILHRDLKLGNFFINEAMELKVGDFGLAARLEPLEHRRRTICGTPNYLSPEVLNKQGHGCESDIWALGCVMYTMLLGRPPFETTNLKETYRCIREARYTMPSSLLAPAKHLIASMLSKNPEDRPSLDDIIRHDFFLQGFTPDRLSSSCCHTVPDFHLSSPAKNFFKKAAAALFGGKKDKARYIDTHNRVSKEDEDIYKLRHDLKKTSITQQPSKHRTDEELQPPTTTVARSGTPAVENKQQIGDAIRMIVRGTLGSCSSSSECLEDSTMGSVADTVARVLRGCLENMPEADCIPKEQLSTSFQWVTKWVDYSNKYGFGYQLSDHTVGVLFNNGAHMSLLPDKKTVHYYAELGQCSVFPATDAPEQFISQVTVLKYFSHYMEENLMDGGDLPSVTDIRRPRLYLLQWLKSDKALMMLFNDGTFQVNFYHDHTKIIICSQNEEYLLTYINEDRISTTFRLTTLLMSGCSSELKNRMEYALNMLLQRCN
Description: PLK2 Inhibition Assay (Z-Lyte). Conditions: for inhibition at 10 µM: 10 μM compound, read-out: PLK2 relative inhibition percentage at a dose of 10 μM. The procedure:
PLK2 inhibition was determined using the Z-Lyte assay kit from Invitrogen (cat #PV3802). The assay was performed using the recommended manufacturer's instructions with 60 μM ATP and 133 nM PLK2 (Invitrogen cat #PV4204). The % inhibition values were determined according to the manufacturer's directions and IC50 values were obtained using a non-linear 4 point logistic curve fit (XLfit4, IDBS)

Experiment [4] concerns the target T4, Aurora A (Homo sapiens, UniProt O14965).
T4 construct: purchased Invitrogen PV3612
T4 sequence (O14965 1-403): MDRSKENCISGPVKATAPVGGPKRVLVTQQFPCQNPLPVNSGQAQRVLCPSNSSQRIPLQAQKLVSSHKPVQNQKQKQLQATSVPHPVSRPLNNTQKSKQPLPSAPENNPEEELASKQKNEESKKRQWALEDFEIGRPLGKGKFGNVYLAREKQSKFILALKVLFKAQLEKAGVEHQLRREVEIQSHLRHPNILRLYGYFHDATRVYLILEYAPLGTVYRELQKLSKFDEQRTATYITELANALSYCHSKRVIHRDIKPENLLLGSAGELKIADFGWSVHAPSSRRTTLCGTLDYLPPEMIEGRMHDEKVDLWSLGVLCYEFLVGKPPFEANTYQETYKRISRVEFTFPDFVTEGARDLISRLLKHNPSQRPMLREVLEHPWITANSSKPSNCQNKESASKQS
The experiment in a line: Aurora A Inhibition Assay (Z-Lyte). Conditions: for IC50: 20 μM ATP, 12 nM Aurora A, read-out: Aurora A IC50 Ranges; for inhibition at 10 µM: 10 μM compound, read-out: Aurora A relative inhibition percentage at a dose of 10 μM. The procedure:
Aurora A inhibition was determined using the Z-Lyte assay kit from Invitrogen. The assay was performed using the recommended manufacturer's instructions with 20 μM ATP and 12 nM Aurora A (Invitrogen cat #PV3612). The % inhibition values were determined according to the manufacturer's directions and IC50 values were obtained using a non-linear 4 point logistic curve fit (XLfit4, IDBS)

Experiment [5] has as its target T5, Aurora B (Homo sapiens, UniProt Q96GD4).
T5 construct: purchased Invitrogen PV3970
The experiment in a line: Aurora B Inhibition Assay (Z-Lyte). Conditions: 128 μM ATP, 28 nM Aurora B; read-out: Aurora B IC50 Ranges. As for the experimental part:
Aurora B inhibition was determined using the Z-Lyte assay kit from Invitrogen. The assay was performed using the recommended manufacturer's instructions with 128 μM ATP and 28 nM Aurora B (Invitrogen cat #PV3970). The % inhibition values were determined according to the manufacturer's directions and IC50 values were obtained using a non-linear 4 point logistic curve fit (XLfit4, IDBS)

T5 sequence (Q96GD4 whole entry): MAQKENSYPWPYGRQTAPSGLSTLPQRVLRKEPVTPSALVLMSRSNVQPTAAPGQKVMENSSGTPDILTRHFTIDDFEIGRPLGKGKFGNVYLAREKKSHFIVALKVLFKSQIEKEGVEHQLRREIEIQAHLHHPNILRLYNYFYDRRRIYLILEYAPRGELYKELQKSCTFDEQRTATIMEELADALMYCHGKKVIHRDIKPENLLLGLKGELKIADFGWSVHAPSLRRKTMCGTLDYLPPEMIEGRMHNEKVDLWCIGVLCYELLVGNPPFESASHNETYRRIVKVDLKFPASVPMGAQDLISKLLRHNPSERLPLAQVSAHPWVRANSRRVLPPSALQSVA

Turning to `O=C1Nc2c(cccc2C(F)(F)F)C1=Cc1ccc2cn[nH]c2c1` (mixture of isomers) [Example A47, (E and Z)-3-((1H-indazol-6-yl)methylene)-7-(trifluoromethyl)indolin-2-one], the IC50 (as a rule, the point on the concentration scale where inhibition reaches its midpoint) is more than 50 µM in experiment [1]; more than 50 µM in experiment [2] (25 μM ATP, 8 nM PLK1, read-out: PLK1 IC50 Ranges); more than 50 µM in experiment [3] (60 μM ATP, 133 nM PLK2, read-out: PLK2 IC50 Ranges); more than 50 µM in experiment [4]; 5 to 50 µM in experiment [5].
For `O=C1Nc2ccccc2C1=Cc1ccc2c(CCc3ccncc3)n[nH]c2c1` (mixture of isomers) [Example A64, (E and Z)-3-((3-(2-(pyridin-4-yl)ethyl)-1H-indazol-6-yl)methylene)-indolin-2-one], the IC50 in experiment [1] and in experiment [5] was less than 5 µM throughout. In addition, the inhibition (commonly the drop in the measured response relative to a control, in per cent) at 10 µM is less than 50% in experiment [2], less than 50% in experiment [3] and more than 50% in experiment [4].
As for `Cc1ccc2c(c1)C(=Cc1ccc3cn[nH]c3c1)C(=O)N2` (mixture of isomers) [Example A81, (E and Z)-3-((1H-indazol-6-yl)methylene)-5-methylindolin-2-one], the IC50 in experiment [1], in experiment [4] and in experiment [5] was less than 5 µM in each case. Further, the inhibition at 10 µM in experiment [2] and in experiment [3] was less than 50% in each case.
Turning to `COc1ccc2c(c1)C(=Cc1ccc3cn[nH]c3c1)C(=O)N2` (mixture of isomers) [Example A83, (E and Z)-3-((1H-indazol-6-yl)methylene)-5-methoxyindolin-2-one], the IC50 in experiment [1] and in experiment [5] was less than 5 µM in each case. Moreover, the inhibition at 10 µM in experiment [2], in experiment [3] and in experiment [4] was more than 50% throughout.
On to `COc1ccc2c(c1)C(=Cc1ccc3c(/C=C/c4ccccn4)n[nH]c3c1)C(=O)N2` (mixture of isomers) [Example A87, (E and Z)-5-methoxy-3-((3-((E)-2-(pyridin-2-yl)vinyl)-1H-indazol-6-yl)methylene)indolin-2-one], for which the half-maximal inhibitory concentration (IC50) in experiment [1] and in experiment [5] was less than 5 µM in each case. In addition, the inhibition at 10 µM in experiment [2] is less than 50%; in experiment [3], less than 50%; in experiment [4], more than 50%.
Regarding `O=C1Nc2ccccc2C1=Cc1ccc2c(-c3ccc[nH]3)n[nH]c2c1` (mixture of isomers) [Example A89, (E and Z)-3-((3-(1H-pyrrol-2-yl)-1H-indazol-6-yl)methylene)indolin-2-one], the IC50 in experiment [1], in experiment [4] and in experiment [5] was less than 5 µM throughout. In addition, the inhibition at 10 µM in experiment [2] and in experiment [3] was less than 50% throughout.
On to `O=C1Nc2ccccc2C1=Cc1ccc2c(-c3cccnc3)n[nH]c2c1` (mixture of isomers) [Example A93, (E and Z)-3-((3-(pyridin-3-yl)-1H-indazol-6-yl)methylene)indolin-2-one], for which the IC50 in experiment [1], in experiment [4] and in experiment [5] was less than 5 µM throughout. Moreover, the inhibition at 10 µM in experiment [2] and in experiment [3] was less than 50% in each case.
Consider `O=C1Nc2ccc(Cl)cc2C1=Cc1ccc2c(-c3cccnc3)n[nH]c2c1` (mixture of isomers) [Example A94, (E and Z)-5-chloro-3-((3-(pyridin-3-yl)-1H-indazol-6-yl)methylene)-indolin-2-one], for which the values for the IC50 in experiment [1], in experiment [4] and in experiment [5] were less than 5 µM, more than 50 µM and less than 5 µM, respectively. Further, the inhibition at 10 µM in experiment [2] and in experiment [3] was less than 50% in each case.
On to `O=C1Nc2ccccc2C1=Cc1ccc2c(-c3cncnc3)n[nH]c2c1` (mixture of isomers) [Example A100, (E and Z)-3-((3-(pyrimidin-5-yl)-1H-indazol-6-yl)methylene)-indolin-2-one], for which the IC50 in experiment [1] and in experiment [5] was less than 5 µM in each case. Also, the values for the inhibition at 10 µM in experiment [2], in experiment [3] and in experiment [4] were less than 50%, less than 50% and more than 50%, respectively.
On to `O=C1Nc2ccccc2C1=Cc1ccc2c(/C=C/c3cnccn3)n[nH]c2c1` (mixture of isomers) [Example A104, (E and Z)-3-((3-((E)-2-(pyrazin-2-yl)vinyl)-1H-indazol-6-yl)methylene)-indolin-2-one], for which the IC50 in experiment [1], in experiment [4] and in experiment [5] was less than 5 µM in each case. The inhibition at 10 µM in experiment [2] and in experiment [3] was less than 50% each time.
Consider `CN1CCN(C(=O)c2cccc(/C=C/c3n[nH]c4cc(C=C5C(=O)Nc6ccccc65)ccc34)c2)CC1` (mixture of isomers) [Example A107, (E and Z)-3-((3-((E)-3-(4-methylpiperazine-1-carbonyl)styryl)-1H-indazol-6-yl)methylene)indolin-2-one 2,2,2-trifluoroacetate], for which the IC50 in experiment [1], in experiment [4] and in experiment [5] was less than 5 µM each time. Moreover, the values for the inhibition at 10 µM in experiment [2] and in experiment [3] were more than 50% and less than 50%, respectively.
Regarding `CCOC(=O)/C=C/c1n[nH]c2cc(C=C3C(=O)Nc4ncccc43)ccc12` (mixture of isomers) [Example A110, (E and Z)-ethyl 3-(6-((E)-(2-oxo-1H-pyrrolo[2,3-b]pyridin-3(2H-ylidene)methyl)-1H-indazol-3-yl)acrylate], the IC50 in experiment [1], in experiment [4] and in experiment [5] was less than 5 µM throughout. Also, the inhibition at 10 µM in experiment [2] and in experiment [3] was less than 50% each time.
Regarding `O=C1Nc2ncccc2C1=Cc1ccc2c(/C=C/c3cccnc3)n[nH]c2c1` (mixture of isomers) [Example A114, (E and Z)-3-((3-((E)-2-(pyridin-3-yl)vinyl)-1H-indazol-6-yl)methylene)-1H-pyrrolo[2,3-b]pyridin-2(3H)-one], the IC50 in experiment [1], in experiment [4] and in experiment [5] was less than 5 µM throughout. For the same molecule, the inhibition at 10 µM in experiment [2] and in experiment [3] was less than 50% in each case.
In the case of `COc1ccc2c(c1)C(=Cc1ccc3c(/C=C/c4cccnc4)n[nH]c3c1)C(=O)N2` (mixture of isomers) [Example A115, (E and Z)-5-methoxy-3-((3-((E)-2-(pyridin-3-yl)vinyl)-1H-indazol-6-yl)methylene)indolin-2-one], the IC50 in experiment [1], in experiment [4] and in experiment [5] was less than 5 µM each time. Also, the inhibition at 10 µM in experiment [2] and in experiment [3] was less than 50% in each case.
Take `O=C1Nc2ccccc2/C1=C\c1cc(Br)c2cn[nH]c2c1` [Example A53a, (E)-3-((4-bromo-1H-indazol-6-yl)methylene)indolin-2-one]: the 50% inhibitory concentration (IC50) in experiment [1] and in experiment [5] was less than 5 µM throughout. Also, the inhibition at 10 µM in experiment [2] is less than 50%; in experiment [3] it was more than 50%.
As for `COCn1nc(/C=C/c2ccncc2)c2ccc(/C=C3/C(=O)Nc4ccc(Br)cc43)cc21` [Example A63, (E)-5-bromo-3-((1-(methoxymethyl)-3-((E)-2-(pyridin-4-yl)vinyl)-1H-indazol-6-yl)methylene)indolin-2-one], the IC50 in experiment [1] was less than 5 µM. Besides, the inhibition at 10 µM in experiment [2] and in experiment [3] was less than 50% each time.
